Assay results taken from article PMC10303159, “Conjugation of Triterpenic Acids of Ursane and Oleanane Types with Mitochondria-Targeting Cation F16 Synergistically Enhanced Their Cytotoxicity against Tumor Cells” (Membranes, 2023).

How the values were obtained:
[1] = test system: H1299 cells (human non-small cell lung cancer); experiment: MTT cytotoxicity assay, H1299; assay type: cell-based; settings: Homo sapiens, NCI-H1299, 48 h of treatment, mean ± SEM
Source text: (§1) All cell lines used in this study (human non-small cell lung cancer—H1299 (Accession Number—CRL-5803), human lung carcinoma—A549 (Accession Number—CCL-185), human breast adenocarcinoma—MCF-7 (Accession Number—HTB-22), human breast ductal carcinoma—BT474 (Accession Number—HTB-20)) were purchased from American Type Culture Collection (ATCC, Manassas, VA, USA). Human primary dermal fibroblasts (HPDF) derived from a patch of skin of healthy donors (n = 3) were obtained from the biobank of the Institute for Regenerative Medicine, Lomonosov Moscow State University, collection ID: MSU_FB (https://human.depo.msu.ru (accessed on 14 September 2021)). Cells were grown in DMEM media supplemented with 10% fetal bovine serum, 100 μg/mL gentamycin, and 2 mM of glutamine at 37 °C in a 5% CO2 atmosphere.
(§2) To carry out the MTT assay, 3500 cells per well were seeded in 96-well plates. A day after the seeding, triterpenoids or their derivatives dissolved in DMSO were added. DMSO was used as a control. At 48 h after cell seeding, 10 μL of 5 mg/mL Thiazolyl Blue (Paneko, Russia) solution was added to each well and cells were kept for 3 h at 37 °C in a CO2 incubator. After removing the thiazol-containing medium, 150 μL of isopropyl alcohol (supplemented with 40 mM HCl and 0.1% NP-40) was added to dissolve the MTT-formazan salt. The absorbance at 570 and 630 nm (reference) was measured using a BioRad iMark microplate reader (BioRad, Hercules, CA, USA). Four biological replicates were used for the experiment. The results were processed with Excel software (version number: 14.0.6023.1000 (32-bit)). IC50 values were calculated by using AAT Bioquest online calculator (https://www.aatbio.com/tools/ic50-calculator, accessed on 15 May 2023) and are represented as the mean ± SEM.

[2] = test system: A549 cells (human lung carcinoma); experiment: MTT cytotoxicity assay, A549; assay type: cell-based; settings: Homo sapiens, A549, 48 h, MTT assay, 48 h of treatment, mean ± SEM
Source text: as §1
as §2, with “A day after the seeding, triterpenoids or their derivatives dissolved in DMSO were added.” left out, “At 48 h after cell seeding, 10 μL of 5 mg/mL Thiazolyl Blue (Paneko, Russia) solution was added to each well and cells were kept for 3 h at 37 °C in a CO2 incubator.” left out

[3] = test system: MCF-7 cells (human breast adenocarcinoma); experiment: MTT cytotoxicity assay, MCF-7; assay type: cell-based
Source text: as §1, §2

[4] = test system: BT474 cells (human breast ductal carcinoma); experiment: MTT cytotoxicity assay, BT474; assay type: cell-based; settings: BT-474, 48 h of treatment, mean ± SEM
Source text: as §1, §2

[5] = test system: Human primary dermal fibroblasts (HPDF); experiment: MTT cytotoxicity assay, HPDF; assay type: cell-based
Source text: as §1
as §2, with “A day after the seeding, triterpenoids or their derivatives dissolved in DMSO were added.” left out, “At 48 h after cell seeding, 10 μL of 5 mg/mL Thiazolyl Blue (Paneko, Russia) solution was added to each well and cells were kept for 3 h at 37 °C in a CO2 incubator.” left out

BT474 cells = experiment: Oxidative stress assay (Muse Oxidative Stress Kit), BT474; assay type: cell-based, human; settings: BT474, 2 μM
Procedure: Oxidative stress was assessed after cell culture and incubation (as described above). For this, cells were harvested by trypsinization, washed with ice-cold PBS buffer (pH 7.4), and centrifuged (1000 rpm, 5 min). The resulting cells were resuspended in PBS. Cell population analysis for oxidative stress was performed on a Muse cell analyzer (Merck Millipore, Burlington, MA, USA) using the Muse Oxidative Stress Kit (MCH100111) according to the manufacturer’s protocol.

rat liver mitochondria [6] = experiment: Respiration of isolated mitochondria fueled by glutamate and malate; assay type: biochemical
Procedure: (§3) Mitochondria were obtained from the liver of male Wistar rats (210–250 g) using the differential centrifugation method. The detailed procedure and composition of the isolation media were described earlier. The suspension of isolated mitochondria contained about 60–70 mg of mitochondrial protein per ml (determined by the Bradford method).
(§4) The rate of O2 consumption by mitochondrial samples was estimated using Oxygraph Plus (Hansatech Instruments Ltd., Pentney, King’s Lynn, UK). The reaction medium included 200 mM sucrose, 20 mM KCl, 0.5 mM EGTA, 5 mM KH2PO4, and 10 mM Hepes/KOH, pH 7.4. The following combinations of substrates and reagents were used: 2.5 mM potassium glutamate + 2.5 mM potassium malate and 5 mM potassium succinate + 1 µM rotenone. Under these conditions, it is possible to assess the oxygen-consuming capacity of mitochondria through complexes I and II of the electron transport chain. To determine the rates of the phosphorylating respiration (State 3) and uncoupled respiration (State 3UDNP) of the mitochondria, 200 µM ADP and 50 µM 2,4-dinitrophenol (DNP) were added sequentially. The concentration of mitochondrial protein was 1 mg/mL.

rat liver mitochondria [7] = experiment: Respiration of isolated mitochondria fueled by succinate; assay type: biochemical
Procedure: as §3, §4

rat liver mitochondria [8] = experiment: Mitochondrial membrane potential (TPP-sensitive electrode); assay type: biochemical; settings: glutamate + malate or succinate + rotenone, Figure 5
Procedure: as §3
The mitochondrial membrane potential (Δψ) was measured using a penetrating tetraphenylphosphonium bromide (TPP) cation and a TPP-sensitive electrode (Nico-Analyte Ltd., Moscow, Russia) as described previously. The concentration of mitochondrial protein was 1 mg/mL.

rat liver mitochondria [9] = experiment: Mitochondrial H2O2 generation (Amplex Red); assay type: biochemical; settings: 5 μM
Procedure: as §3
The fluorescent probe Amplex Red (λex = 560 nm; λem = 590 nm) and a plate reader Varioskan Lux were used to register mitochondrial H2O2 generation. In this case, 0.15 mg of mitochondrial protein was incubated in the buffer containing 210 mM mannitol, 70 mM sucrose, 10 μM EGTA, 10 µM Amplex Red, 1 µM rotenone, 10 µM EGTA, horseradish peroxidase (HRP 1 a.u./mL), 10 mM Hepes/KOH, and at a pH of 7.4. […] The kinetics of H2O2 generation was recorded for three minutes.

## CC1(C)CCC2(C(=O)OCCCC[n+]3ccc(C=Cc4c[nH]c5ccccc45)cc3)CCC3(C)C(=CCC4C5(C)CCC(O)C(C)(C)C5CCC43C)C2C1 (stereo not shown) [OA-F16]
[1]
  IC50: 0.93 ± 0.07 µM
[2]
  IC50: 0.74 ± 0.09 µM
[3]; Homo sapiens, MCF7, MTT assay, 48 h of treatment, mean ± SEM
  IC50: 1.52 ± 0.16 µM
[3]; MCF7 cells, based on IC50 values for parent acid, F16 [23] and conjugate, CI < 1 synergism
  Chou–Talalay combination index (CI): 0.03
[4]
  IC50: 4.34 ± 0.28 µM
[5]; Homo sapiens, Fibroblast, MTT assay, 48 h of treatment, mean ± SEM
  IC50: 2.05 ± 0.58 µM
[5]; between tumor cells H1299, A549 and MCF-7 and fibroblasts
  Selectivity index (SI): 1.3–2.8
BT474 cells
  Effect on level of ROS-positive cells: significantly increase the level of ROS-positive cells
Rat liver mitochondria [6]; 10 μM
  ADP/O: 2.80 ± 0.13 rel. un.
  RC (state 3/state 4): 2.24 ± 0.11 rel. un.
  State 2 respiration: 6.47 ± 0.27 nmol O2/min/mg Protein
  State 3UDNP respiration: 31.34 ± 0.49 nmol O2/min/mg Protein
  State 3 respiration: 23.82 ± 0.53 nmol O2/min/mg Protein
  State 4 respiration: 10.65 ± 0.24 nmol O2/min/mg Protein
Rat liver mitochondria [6]; 20 μM
  ADP/O: 0.64 ± 0.05 rel. un.
  RC (state 3/state 4): 1.03 ± 0.04 rel. un.
  State 2 respiration: 15.38 ± 0.30 nmol O2/min/mg Protein
  State 3UDNP respiration: 23.24 ± 0.61 *#^γ nmol O2/min/mg Protein
  State 3 respiration: 17.02 ± 0.97 nmol O2/min/mg Protein
  State 4 respiration: 16.55 ± 0.54 nmol O2/min/mg Protein
Rat liver mitochondria [7]; 10 μM
  ADP/O: 1.41 ± 0.09 rel. un.
  RC (state 3/state 4): 2.83 ± 0.20 rel. un.
  State 2 respiration: 14.39 ± 0.65 nmol O2/min/mg Protein
  State 3UDNP respiration: 69.57 ± 1.73 nmol O2/min/mg Protein
  State 3 respiration: 48.46 ± 0.82 nmol O2/min/mg Protein
  State 4 respiration: 17.22 ± 0.93 nmol O2/min/mg Protein
Rat liver mitochondria [7]; 20 μM
  ADP/O: 1.15 ± 0.05 rel. un.
  RC (state 3/state 4): 1.25 ± 0.10 rel. un.
  State 2 respiration: 14.05 ± 0.18 nmol O2/min/mg Protein
  State 3UDNP respiration: 56.46 ± 4.21 nmol O2/min/mg Protein
  State 3 respiration: 41.57 ± 1.36 nmol O2/min/mg Protein
  State 4 respiration: 33.23 ± 0.75 nmol O2/min/mg Protein
Rat liver mitochondria [8]
  Effect on membrane potential of organelles: the most effective
Rat liver mitochondria [9]
  Effect on production of H2O2 by organelles: antioxidant effect
